Counter-ions that a name gives are not always drawn. Like-named read-outs stand apart in the source and are kept apart here.
Columns and labels:
[1] = test system: neurogenic urethral hypertension (stimulation of the hypogastric nerve); test: Urethral specificity in anesthetized dogs: neurogenic urethral hypertension; type: in vivo; conditions: Canis lupus familiaris, iv, 50% inhibition of effect of hypogastric nerve stimulation on urethral pressure, read-out: Neurogenic urethral hypertension ID50
Text: (§1) The effect of products B 1007, B 1024, B 1125 and B 1134, injected intravenously, on the neurogenic urethral hypertension and the arterial pressure was investigated on anesthetized dogs.
Electrical stimulation of the hypogastric nerve causes an increase in the urethral pressure by releasing norepinephrine from the sympathetic fibers of the nerve.
(§2) α-Blocking substances antagonize these increases in urethral pressure as a function of dose and cause arterial hypotension through a blocking action on the vascular receptors.
(§3) The dose which causes a 50% inhibition of the effects of stimulation of the hypogastric nerve on the urethral pressure (ID50) and the dose which causes a 20% arterial hypotension (ED20) are calculated.

[2] = test system: toxicity of norepinephrine; test: In vivo adrenolytic activity: protection against norepinephrine-induced death in rats; conditions: Rattus norvegicus, po; for responders at 50 mg/kg / responders at 25 mg/kg: 0.5 h, 30 min before i.v. norepinephrine 0.4 mg/kg; for responders at 50 mg/kg: 50 mg/kg p.o.; for responders at 25 mg/kg: 25 mg/kg p.o.
Experimental: Norepinephrine injected intravenously in high doses causes the death of 100% of the animals within 15 minutes of being injected. The cause of death is pulmonary edema due to the arterial hypertension induced by stimulation of the adrenergic receptors. The oral administration of α-adrenolytic substances before-hand enables the toxicity of norepinephrine to be reduced. The products are administered orally at times varying between 30 minutes and 6 hours before the intravenous injection (i.v.) of norepinephrine (0.4 mg/kg).

[3] = target: T1, isolated ductus deferens of rats (Rattus norvegicus, UniProt P43140); test: In vitro α-adrenolytic activity on isolated ductus deferens; conditions: negative log of molar concentration requiring doubled norepinephrine concentration, read-out: pA2, α-blocking action towards norepinephrine on isolated ductus deferens (converted)
T1 construct: Norepinephrine causes contractions of the isolated ductus deferens of rats; from tissue; host or cells: isolated ductus deferens of rats
T1 sequence (P43140 1-466): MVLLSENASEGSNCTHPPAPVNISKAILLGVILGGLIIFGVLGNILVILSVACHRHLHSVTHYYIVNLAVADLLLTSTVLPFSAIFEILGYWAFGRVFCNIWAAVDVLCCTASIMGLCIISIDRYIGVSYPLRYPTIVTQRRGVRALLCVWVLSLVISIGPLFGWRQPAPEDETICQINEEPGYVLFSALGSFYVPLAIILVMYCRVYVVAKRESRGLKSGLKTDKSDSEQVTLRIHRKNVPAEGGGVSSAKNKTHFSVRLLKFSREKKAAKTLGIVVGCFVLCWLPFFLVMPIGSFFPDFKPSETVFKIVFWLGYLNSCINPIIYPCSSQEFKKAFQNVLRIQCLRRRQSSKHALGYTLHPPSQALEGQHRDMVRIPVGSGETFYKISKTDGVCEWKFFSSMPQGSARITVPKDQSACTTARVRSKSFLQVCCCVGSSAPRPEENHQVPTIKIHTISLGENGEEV
Text: (§4) 2.1. - In vitro α-adrenolytic activity
(§5) This was studied on the ductus deferens of rats and on the urethra of rabbits.
(§6) Norepinephrine causes contractions of the isolated ductus deferens of rats and the isolated urethra of rabbits. The presence of α-blocking substances in a bath containing the organ antagonizes these contractions; the use of increasing concentrations of α-blocking substances makes it possible to calculate:
the pA2 of the compounds on the ductus deferens of rats, the pA2 being the negative logarithm of that molar concentration of the product in the presence of which the concentration of norepinephrine has to be doubled in order to obtain the same effect as in the absence of the product; and […]

[4] = Toxicity: 50% lethal dose in mice (p.o. and i.v.); conditions: mouse, in vivo
Text: The following 50% lethal doses were obtained after oral administration (p.o.) and intravenous administration (i.v.) of the substances to mice.

arterial pressure = test: Urethral specificity in anesthetized dogs: arterial hypotension; type: in vivo; conditions: i.v., dose causing 20% arterial hypotension
Text: as §1, §2, §3

[5] = test system: urethral hypertension induced by norepinephrine; test: In vivo α-blocking activity in anesthetized rabbits: urethral pressure; conditions: Oryctolagus cuniculus, iv, norepinephrine-induced urethral pressure increase, read-out: ID50 with regard to urethral hypertension
Text: (§7) The "in vivo" α-blocking activity in terms of the urethral and vascular pressures in anesthetized rabbits was investigated by intravenous administration of the products B 1007, B 1024, B 1058, B 1125 and B 1134.
(§8) The intravenous injection of norepinephrine causes a dose-dependent increase in the arterial and urethral pressures in rabbits. α-Blocking substances injected intravenously antagonize these pressure increases as a function of dose. The 50% inhibitory dose (ID50), defined as being the dose of product which causes a 50% […] in the effects of norepinephrine on the arterial and urethral pressures, is calculated.

[6] = test system: isolated urethra of rabbits; test: In vitro α-adrenolytic activity on isolated urethra; conditions: rabbit; negative log of molar concentration halving norepinephrine contraction-inducing activity
Text: as §4, §5, §6
the pD'2 of the compounds on the urethra of rabbits, the pD'2 being the negative logarithm of that molar concentration of the product in the presence of which the contraction-inducing activity of norepinephrine is halved.

[7] = test system: arterial hypertension induced by norepinephrine; test: In vivo α-blocking activity in anesthetized rabbits: arterial pressure; conditions: Oryctolagus cuniculus, iv, norepinephrine-induced arterial pressure increase, read-out: ID50 with regard to arterial hypertension
Text: as §7, §8

[8] = intravenous, read-out: LD50 i.v.

Row | Structure (SMILES) | ED50 [1] [mg/kg] | responders at 50 mg/kg [2] [%] | Kb [3] [nM] | LD50 [4, 8] [mg/kg] | LD50 ([4]; oral, read-out: LD50 p.o.) [mg/kg] | Arterial hypotension ED20 (arterial pressure) [mg/kg] | ED50 [5] [mg/kg] | pD'2, α-blocking action towards norepinephrine on isolated urethra [6] | ED50 [7] [mg/kg] | responders at 25 mg/kg [2] [%] | responders at 100 mg/kg ([2]; 100 mg/kg p.o., 4 h before i.v. norepinephrine 0.4 mg/kg) [%]
1 | Cc1ccc(C(C)C)c(OCCN2CCCC2)c1 [B 1007, 3-[2-(pyrrolidin-1-yl)ethoxy]-p-cymene hydrochloride] | 0.35 | 60 | 182 | 75 | 330 | 2 | 0.34 | 6.88 | 7.63 |  | 
2 | CC(=O)Oc1cc(C(C)C)c(OCCN2CCCC2)cc1C [B 1024, 2-acetoxy-5-[2-(pyrrolidin-1-yl)ethoxy]-p-cymene hydrochloride] | 0.07 |  | 105 | 18 | 100 | 8 | 0.23 | 6.38 | 4.14 | 70 | 
3 | Cc1cc(OCCN2CCCC2)c(C(C)C)cc1O [B 1058, 2-hydroxy-5-[2-(pyrrolidin-1-yl)ethoxy]-p-cymene hydrochloride] |  | 90 | 66.1 | 17 | 80 |  | 0.13 | 6.69 | 1.22 |  | 
4 | CCC(=O)Oc1cc(C(C)C)c(OCCN2CCCC2)cc1C [B 1125] | 0.09 |  | 72.4 |  | ~300 | 12 | 0.36 | 6.25 | 5.95 | 60 | 
5 | CCCCCC(=O)Oc1cc(C(C)C)c(OCCN2CCCC2)cc1C [B 1131] |  | 60 | 105 |  | ~550 |  |  | 6.12 |  |  | 
6 | CCCC(=O)Oc1cc(C(C)C)c(OCCN2CCCC2)cc1C [B 1132, 2-butyryloxy-5-[2-(pyrrolidin-1-yl)-ethoxy]-p-cymene hydrochloride] |  | 90 | 44.7 |  | ~500 |  |  | 6.0 |  |  | 
7 | CCCCCCCCCC(=O)Oc1cc(C(C)C)c(OCCN2CCCC2)cc1C [B 1134] | 0.11 |  | 269 | 36 | ~400 | 30 | 0.48 | 6.23 | 6.17 |  | 100
8 | CC(=O)Oc1cc(C(C)C)c(OCCN(C)C)cc1C [Thymoxamine, reference compound] | 0.09 | 80 | 56.2 | 72.5 | 300 | 0.27 | 0.5 | 7.03 | 2.72 |  | 

— patent US4795758A, “5-[2-(pyrrolidin-1-yl)ethoxy]-p-cymene derivatives, the process for the preparation of the said derivatives and drugs in which the said derivatives are present” (priority 1987, dated 1989)
